≈ marks a conversion by molar mass, not a printed value. Numbered stars: 1 amine (or outer) side, 2 acyl side, 3 side chain; on linkers, the order of the positions; unused ones are H or OH. Square brackets hold non-standard residues; d marks the D form. Peptide text beside a SMILES is read from it. * marks the point of attachment. X1 = CCC(=O)C[C@@H](O)C[C@@H](C)C[C@H](N[*:1])C(=O)[*:2]; Alaψ(CH2NMeCH2CH2OH) = C[C@@H](CN(C)CCO)N*; Decanoyl(2R-Me) = CCCCCCCC[C@@H](C)C(=O)*; Aib = CC(C)(N)C(=O)O
Legend:
Assay type in all cases: functional
[1] = tested on: Mycobacterium tuberculosis; assay: Antimycobacterial activity against Mycobacterium tuberculosis
[2] = tested on: Mycobacterium tuberculosis; assay: Antimycobacterial activity against Mycobacterium tuberculosis H37Ra
[3] = tested on: Mycobacterium tuberculosis; assay: Antimycobacterial activity against Mycobacterium tuberculosis H37Rv
[4] = tested on: Mycobacterium tuberculosis; assay: Antimycobacterial activity against Mycobacterium tuberculosis H37Rv ATCC 27294
[5] = Mycobacterium tuberculosis, H37Rv, read-out: MIC

Structure (SMILES) | MIC [2] | also measured
O=C1c2ccccc2-c2c3c(cc4ccnc1c24)OCO3 [LIRIODENINE] |  | MIC [1]: 12.5 µg/mL
C=C(C)CC(O)c1c(OC)cc(O)c2c(=O)cc(C)oc12 (stereo not given) [PERFORAMONE B] | 25 µg/mL | 
CC1(C)C=Cc2c(cc(O)c3c(=O)cc(CO)oc23)O1 [PERFORAMONE D] | 25 µg/mL | 
COc1cc(O)c2c(c1)[C@H](O)[C@@H](OC)CC2=O | 25 µg/mL | 
COc1ccc([C@@]23Oc4cc(OC)cc(OC)c4[C@@](O)(C2O)[C@@H](C(=O)NCCCCNC(=O)c2ccccc2)[C@@H]3c2ccccc2)cc1 (stereo not given in full) | 25 µg/mL | 
CCCC/C=C/C#CC#CCCCCCCCC(=O)OCC(O)CO (stereo not given) | 25 µg/mL | 
O=C1C=C[C@@H]2O[C@H](c3ccccc3)[C@@H](O)[C@@H]2O1 [ALTHOLACTONE] | 6.25 µg/mL | 
CC(C)(O)c1ccc2c(c1)CC[C@H]1[C@](C)(C(=O)O)CCC[C@]21C |  | MIC [1]: 50 µg/mL
CC(C)=CCOc1ccc(C[C@@H]2NC(=O)[C@H](C(C)C)N(C)C(=O)[C@H](CO)NC(=O)[C@@H]3CCCN3C(=O)[C@@H](Cc3ccccc3)OC(=O)[C@H](C)N(C)C2=O)cc1 [PULLULARIN C] | 50 µg/mL | 
C=C[C@H]1C=C[C@H]2[C@@H]3C[C@H](C)CC[C@H]3[C@@H]3Oc4ccc(cc4)C[C@]4(O)NC(=O)[C@H](C(=O)[C@@H]1[C@H]23)C4N1C(=O)[C@H]2C(=O)[C@H]3[C@@H](C=C)C=C[C@H]4[C@@H]5C[C@H](C)CC[C@H]5[C@H](Oc5ccc(cc5)C[C@@H]2C1=O)[C@@H]43 (stereo not given in full) [HIRSUTELLONE F] | 3.12 µg/mL | 
Oc1ccc2c(c1)OC[C@H]1c3cc4c(cc3O[C@@H]21)OCO4 [MAACKIAIN] | 50 µg/mL | 
O=C(CCCCCCCCCCCC[C@H]1C=CCC1)OCC(O)CO (stereo not given in full) [ANTHELMINTHICINS C] |  | MIC [1]: 11.3 µM; MIC [3, 5]: 4.38 µM (≈ 1.55 µg/mL)
O=C1C=C[C@@H](OC(=O)/C=C/c2ccccc2)[C@@H]([C@H]2O[C@@H]2c2ccccc2)O1 [HOWIININ A] | 6.25 µg/mL | 
O=C1C[C@@H](c2ccccc2)Oc2cc(O)cc(O)c21 [PINOCEMBRIN] | 12.5 µg/mL | 
NC(=O)c1cnccn1 [PYRAZINAMIDE] | 810 µM | MIC [3, 5]: 810 µM (≈ 99.7 µg/mL)
O=C(CCCCCCCCc1ccccc1)c1c(O)cccc1O [MALABARICONE A] | 25 µg/mL | 
C[C@@H]1C[C@H](C)C(=O)/C=C/C2[C@@H](O)C3OC4=C(C(=O)O[C@@]42C[C@H]3C)C1=O (stereo in doubt; 208) |  | MIC [1]: 8.3 µg/mL; MIC [3]: 3.6 µM (≈ 1.25 µg/mL)
CC1(C)C=Cc2c(cc3oc(CO)cc(=O)c3c2O)O1 [GREVEICHROMENOL] | 50 µg/mL | 

Structure (SMILES) | MIC [2] | also measured
C=C(C)C(=O)O[C@H]1C[C@@]2(C)OC(=CC2=O)/C(CO)=C\[C@H]2OC(=O)C(=C)[C@H]12 [GOIAZENSOLIDE] | 3.1 µg/mL | 
COc1c(O)cc2oc3cc(O)c(CC=C(C)C)c(O)c3c(=O)c2c1CC=C(C)C [MANGOSTIN] |  | MIC [1]: 15.2 µg/mL
CCCCCCC[C@H]1C[C@H]2CCC3=C(C(=O)OCCCCNC(=N)N)C(CCCCC)N=C(N1)N32 (stereo not given in full) |  | MIC [4]: 34.7 µg/mL (≈ 71 µM)
CSCCC(NC(=O)NC(Cc1c[nH]c2ccccc12)C(=O)O)C(=O)NC(C(=O)N/C=C1\C[C@@H](O)[C@H](n2ccc(=O)[nH]c2=O)O1)C(C)N(C)C(=O)C(N)Cc1cccc(O)c1 (stereo not given in full) [SANSANMYCIN A] |  | MIC [4]: 16 µg/mL (≈ 18.5 µM)
O=C(/C=C/CC/C=C/c1ccc2c(c1)OCO2)N1CCCC1 [SARMENTOSINE] | 50 µg/mL | 
COc1c(-c2ccccc2)oc2c3c(ccc2c1=O)OC(C)(C)C=C3 [KARANJACHROMENE] | 12.5 µg/mL | 
O=C(/C=C/CCCC/C=C/c1ccc2c(c1)OCO2)N1CCCC1 [BRACHYAMIDE B] | 50 µg/mL | 
CCCCCCCC[C@@H](C)C(=O)N1CCC[C@H]1C(=O)N[C@@H](C[C@H](C)C[C@H](O)CC(=O)CC)C(=O)NC(C)(C)C(=O)NC(C)(C)C(=O)N[C@H](C(=O)N[C@H](C(=O)NC(C)(C)C(=O)NC(C)(C)C(=O)N[C@@H](C)CN(C)CCO)C(C)C)[C@@H](C)CC [TRICHODERIN A] ({Decanoyl(2R-Me)}-P[X1][Aib][Aib]IV[Aib][Aib]-{Alaψ(CH2NMeCH2CH2OH)}) | 25 µg/mL | 
C=C1C(=O)O[C@H]2[C@H]1[C@@H](OC(=O)/C(C)=C\C)C[C@@]1(C)OC(=CC1=O)C(=C)[C@@H]2O | 3.1 µg/mL | 
CCOC(=O)/C=C/c1ccc(OC)cc1 [4-METHOXY ETHYL CINNAMATE] | 485 µM | MIC [3, 5]: 242 µM (≈ 49.9 µg/mL)
COc1cc(O)c2c(O)c(C(C)=O)c(C)cc2c1 [TORACHRYSONE] |  | MIC [1]: 6.1 µM
CC(=O)O[C@@H]1C[C@H]2C(C)(C)C(=O)C=C[C@]2(C)[C@H]2CC[C@@]3(C)[C@H](c4ccoc4)C(=O)[C@H]4O[C@]43[C@@]21C [EPOXYAZADIRADIONE] | 25 µg/mL | 
O=c1cc(-c2ccccc2)oc2c1ccc1occc12 [LANCEOLATIN B] | 50 µg/mL | 
COc1ccc(C/C=C/c2ccc(O)cc2)c(OC)c1O [DALPARVINENE] | 50 µg/mL | 
CO[C@H]1CC(=O)c2c(O)cccc2[C@H]1O | 12.5 µg/mL | 
COc1ccc2c(=O)c(OC)c(-c3ccc4c(c3)OCO4)oc2c1 [DEMETHOXYKANUGIN] | 50 µg/mL | 
CCCCCCCCCCCC(=O)c1c(O)cc(O)cc1O [DODECANOYLPHLOROGLUCINOL] | 50 µg/mL | 
C=C(C)C(=O)O[C@H]1C[C@@]2(C)OC(=CC2=O)C(=C)[C@H](O)[C@H]2OC(=O)C(=C)[C@@H]21 | 3.1 µg/mL | 
